The record followed here is patent US20050130983A1, “Pyrrolopyrimidinone derivatives, process for preparation thereof, and method of using and composition comprising them” (priority 2002, published 2005).

`CCCc1cn(C)c2c(=O)[nH]c(-c3cc(S(=O)(=O)N4CCN(CCCOC(C)=O)CC4)ccc3OCC)nc12` [Example 6, 2-{5-[4-(3-Acetoxypropyl)piperazin-1-ylsulfonyl]-2-ethoxyphenyl}-5-methyl-7-n-propyl-3,5-dihydro-4H-pyrrolo[3,2-d]pyrimidin-4-one]: the melting point lay within 157 to 158.5 °C.
Then `CCCOc1ccc(S(=O)(=O)N2CCN(CCOC(C)=O)CC2)cc1-c1nc2c(CCC)cn(CC)c2c(=O)[nH]1` [Example 7, 2-{5-[4-(2-Acetoxyethyl)piperazin-1-ylsulfonyl]-2-n-propoxyphenyl}-5-ethyl-7-n-propyl-3,5-dihydro-4H-pyrrolo[3,2-d]pyrimidin-4-one], with 139 to 140 °C; and `CCCOc1ccc(S(=O)(=O)N2CCN(CCOC(=O)CC)CC2)cc1-c1nc2c(CCC)cn(CC)c2c(=O)[nH]1` [Example 10, 5-Ethyl-2-{5-[4-(2-propionyloxyethyl)piperazin-1-ylsulfonyl]-2-n-propoxyphenyl}-7-n-propyl-3,5-dihydro-4H-pyrrolo[3,2-d]pyrimidin-4-one], with 126.5 to 127.5 °C; and `CCCOc1ccc(S(=O)(=O)N2CCN(CCOC(=O)CCC)CC2)cc1-c1nc2c(CCC)cn(CC)c2c(=O)[nH]1` [Example 12, 2-{5-[4-(2-Butyryloxyethyl)piperazin-1-ylsulfonyl]-2-n-propoxyphenyl}-5-ethyl-7-n-propyl-3,5-dihydro-4H-pyrrolo[3,2-d]pyrimidin-4-one], with 71.5 to 73 °C.
The result for `CCCOc1ccc(S(=O)(=O)N2CCN(CCOC(=O)C(C)C)CC2)cc1-c1nc2c(CCC)cn(CC)c2c(=O)[nH]1` [Example 14, 5-Ethyl-2-{5-[4-(2-isobutyryloxyethyl)piperazin-1-ylsulfonyl]-2-n-propoxyphenyl}-7-n-propyl-3,5-dihydro-4H-pyrrolo[3,2-d]pyrimidin-4-one] reads 88 to 89 °C; that for `CCCOc1ccc(S(=O)(=O)N2CCN(CCOC(=O)c3ccccc3)CC2)cc1-c1nc2c(CCC)cn(CC)c2c(=O)[nH]1` [Example 16, 2-{5-[4-(2-Benzoyloxyethyl)piperazin-1-ylsulfonyl]-2-n-propoxyphenyl}-5-ethyl-7-n-propyl-3,5-dihydro-4H-pyrrolo[3,2-d]pyrimidin-4-one], 78 to 79 °C; that for `CCCOc1ccc(S(=O)(=O)N2CCN(CCOC(=O)OCC)CC2)cc1-c1nc2c(CCC)cn(CC)c2c(=O)[nH]1` [Example 17, 2-{5-[4-(2-Ethoxycarbonyloxyethyl)piperazin-1-ylsulfonyl]-2-n-propoxyphenyl}-5-ethyl-7-n-propyl-3,5-dihydro-4H-pyrrolo[3,2-d]pyrimidin-4-one], 135 to 136 °C.
For the compound `CCCOc1ccc(S(=O)(=O)N2CCN(CCOC(C)=O)CC2)cc1-c1nc2c(CCCF)cn(CC)c2c(=O)[nH]1` [Example 19, 2-{5-[4-(2-Acetoxyethyl)piperazin-1-ylsulfonyl]-2-n-propoxyphenyl}-5-ethyl-7-(3-fluoropropyl)-3,5-dihydro-4H-pyrrolo[3,2-d]pyrimidin-4-one], the melting point fell in the range of 134 to 135 °C.
